We go through three compounds from patent US12427161B2, “Methods for treating and pharmaceutical compositions” (Boehringer Ingelheim International GmbH, priority 2015, dated 2025).

The test system of experiment [1] is Goto-Kakizaki diabetic rats (GK rats). The experiment in a line: Erectile responses to electrical stimulation of the cavernous nerve (ES CN), intracavernous pressure in anesthetized rats. The format is in vivo, rat. The procedure:
Adult male Wistar (Charles River, France) and age-matched GK rats (Metabrain Research, Chilly-Mazarin, France) were housed at least 7 days prior to the beginning of the treatment with free access to control diet and water and maintained on an inversed 12 h dark/light cycle. At 15 weeks of age, treatments were started; n=12 Wistar (group I) rats and n=24 GK (group II) rats were fed with a control diet, while n=24 GK rats (group III) were fed for 28 days by a medicated diet i.e., control diet premixed with empagliflozin 300 ppm (parts per million corresponding to an average of 25.3 mg/kg body weight of empaglfilozin in that experiment).
On day 29th after starting treatment administration, and approximately 16 hours after the last treatment administration, fasted rats (19 weeks of age) underwent an in vivo evaluation of their erectile function after electrical stimulation of the cavernous nerve (ES CN), in comparison to acute dosing of sildenafil.
Erectile responses were elicited by electric stimulation (ES) of the cavernous nerve (CN) and measured by monitoring intracavernous pressure (ICP) in anesthetized rats according to an experimental procedure previously described and well-standardized. After an overnight fasting period, rats were anesthetized (urethane […]) and their temperature maintained at 37° C. using a homoeothermic blanket. A tracheotomy was performed to prevent aspiration of saliva and to perform, when required, artificial ventilation. The carotid artery was catheterized with polyethylene tubings filled with heparinized saline (25 UI/ml) to record blood pressure (BP) via a pressure transducer (Elcomatic 750, Glasgow, UK). Simultaneous computerized measure of BP and ICP was performed. CN was exposed at the lateral aspect of the prostate, with the aid of a dissecting microscope and mounted on a bipolar platinum electrode connected to an electrical stimulator (AMS 2100, Phymep, France). In some animals an acute dose of sildenafil (0.3 mg/kg) or vehicle was intravenously injected. […] The CN was stimulated at 6V, 1 ms for 45 s by different stimulation frequencies (0, 2.5, 5, 7.5, 10, 12.5 and 15 Hz) in a randomized manner in order to assess the erectile responses. These different electrical stimulations on the increase of ICP were repeated twice in view of establishing a frequency-response curve for each animal.
Mean arterial pressure (MAP) and the amplitude of the erectile responses elicited by each ES CN were quantified for each rat and averaged for each experimental group by calculating: • ICP (mmHg)/MAP (mmHg)×100 with AICP being the difference between ICP in the flaccid state, i.e. before stimulation and ICP during the plateau phase of the erectile response, and MAP, the mean arterial pressure during the plateau phase. • AUC45/MAP with AUC45, the area under the curve during the first 45 seconds after the beginning of the electrical stimulation of the cavernous nerve and determined using the ICP level in the flaccid state before the onset of the stimulation. • AUCtot/MAP with AUCtot, the area under the curve during the entire erectile response, measured from the beginning of the electrical stimulation until the end of the erectile response and determined using the ICP level in the flaccid state before the onset of the stimulation. • ICP increase and AUC were normalized with MAP to account for the close influence of the systemic blood pressure in the amplitude of ICP increase during the plateau phase of the erectile response.
For erectile function evaluation, comparisons of frequency-response curves were performed with a two-way ANOVA statistical analysis test followed by a Bonferroni's post-test. In case of significant interaction between the two factors (i.e. frequency of ES CN and experimental group), the difference between groups of rats was examined by the modified Student's t-test with the Bonferroni's adjustment for multiple comparisons.

For a further experiment, the system named is GK rats. To be noted: acute single dose 0.3 mg/kg; cited from earlier work.
The subject of experiment [2] is corporal strips of diabetic GK rats. The experiment in a line: EFS-induced relaxation of PHE-precontracted corpora cavernosa strips (ex vivo isometric tension). On the set-up: species or system rat. The procedure:
In addition, to further evaluate erectile function, at the end of the in vivo evaluation of the ED, the penis of 24 GK rats (groups IIA & IIIA) and 12 wistar rats (group I) were immediately harvested and the corpora cavernosa (CC) dissected for ex vivo isometric tension studies. After extensive washings, corporal strips were incubated in the presence of guanethidine (5 μM) and atropine (1 μM) that were also added to the organ chambers for the remainder of the experiments. The corporal strips were placed between two parallel platinum electrodes in the organ baths. After equilibration (60 min), the electric field stimulation (EFS) experiments were started. Firstly, a priming period was observed where corporal strips from Wistar, GK (control) and GK_Chronic empa were exposed to phenylephrine (PHE) (10^−5 M) followed by an EFS-induced relaxation at 1 ms, 10 s, 300 mA and 20 Hz. Then, after washings, frequency-response curves (FRC) to EFS (1-2-4-8-16-32 Hz) was constructed on PHE-precontracted corporal strips (PHE 10^−5 M). Frequency response-curves (FRC) to EFS were performed by successive stimulation of the corporal strips at 1 ms, 10 s, 300 mA and increasing frequencies (1, 2, 4, 8, 16 and 32 Hz). […]
The results from duplicate determinations in one experiment with CC from one rat were averaged and the data expressed as mean±SEM for N experiments using CC from N different rats. […]

The conditions of experiment [3]: metformin on its own, in the diabetic; cited from earlier work.

Turning to `CCCc1nn(C)c2c(=O)[nH]c(-c3cc(S(=O)(=O)N4CCN(C)CC4)ccc3OCC)nc12` [sildenafil], in experiment [1] (sildenafil 0.3 mg/kg acute i.v. 4 min before evaluation, vs GK control, p<0.0001, 2-way ANOVA, FIG. 1), the “erectile response to ES CN in terms of ΔICP/MAP” value was “significantly increased”. Besides, the “erectile response to ES CN in terms of AUC45/MAP” value in experiment [1] (sildenafil 0.3 mg/kg acute i.v., vs GK control, p<0.0001, 2-way ANOVA, FIG. 2a) was “significantly increased”. For the same compound, the “erectile response to ES CN in terms of AUCtot/MAP” value in experiment [1] (sildenafil 0.3 mg/kg acute i.v., vs GK control, p<0.0001, 2-way ANOVA, FIG. 2b) is recorded as “significantly increased”. Moreover, the “impaired erectile function in GK rats” value with GK rats is on record as “partially improved”.
For the compound `OC[C@H]1O[C@@H](c2ccc(Cl)c(Cc3ccc(O[C@H]4CCOC4)cc3)c2)[C@H](O)[C@@H](O)[C@@H]1O` [empagliflozin, 1-chloro-4-(β-D-glucopyranos-1-yl)-2-[4-((S)-tetrahydrofuran-3-yloxy)-benzyl]-benzene], the “pro-erectile facilitator effect compared with acute IV dose of sildenafil at 0.3 mg/kg” value in experiment [1] (chronic empagliflozin 25.3±0.9 mg/kg/day) is “slightly but significantly lower”. Besides, in experiment [1] (empagliflozin in diet 25.3±0.9 mg/kg/day for 4 weeks, vs GK control diet, p=0.08, 2-way ANOVA, FIG. 1), the “erectile responses to ES CN in terms of ΔICP/MAP” value was “no difference could be statistically detected”. For the same compound, the “erectile responses to ES CN in terms of AUC45/MAP” value in experiment [1] (empagliflozin premixed with diet 25.3±0.9 mg/kg/day for 4 weeks, vs GK control diet, p<0.05, FIG. 2a) is “improved”. In addition, in experiment [1] (empagliflozin premixed with diet 25.3±0.9 mg/kg/day for 4 weeks, vs GK control diet, p<0.05, FIG. 2b), the “erectile responses to ES CN in terms of AUCtot/MAP” value is on record as “improved”. Further, the “maximal relaxation induced by EFS at 32 Hz (percentage of inhibition of the contractile response to PHE)” value in experiment [2] (4-week empagliflozin 25.3±0.9 mg/kg/d, mean±SEM, not significantly different from untreated) is given as −42.0±2.9%. In addition, the “relaxation induced by EFS on PHE precontracted cavernosal strips (frequency-response curve)” value in experiment [2] (4-week treatment of empagliflozin at 25.3±0.9 mg/kg/d, vs untreated GK, p<0.05, 2-way ANOVA, FIG. 3) is recorded as “slightly but significantly improved”.
As to `CN(C)C(=N)N=C(N)N` [metformin], in experiment [3], the “average improvement in the HbA1c value” is 1.0-1.5%.
